Laboratory results taken from paper doi:10.1101/2025.02.17.638454, “Synergistic RAS-MAPK and AKT Activation in MYC-Driven Tumors via Adjacent PVT1 Rearrangements” (bioRxiv, 2025).
No end group written: not given here.

Tests used:
KRAS dimerization = test: Acceptor photobleaching FRET of CFP-KRAS/YFP-KRAS in D458; type: cell-based; conditions: shRNA1.PVT1ts D458 with doxycycline-induced HNB; n=10, one-way ANOVA
Method: pcDNA3.1 CFP-KRAS (#112717) and pcDNA3.1 YFP-KRAS (#112718) were purchased from Addgene. The plasmids were co-transfected into D458 cells in a 35 mm cell culture dish with glass bottom. The cells were imaged live 48 hours after transfection on the Nikon Super Resolution Confocal Microscope. CFP was excited using 405–445nm laser and YFP was excited using the 514 nm laser. YFP was photobleached at 80% power for 1 minute and the CFP and YFP were imaged after photobleaching using the respective laser and filters. The images were analyzed in Fiji, ImageJ. […]
bioRxiv preprint doi: https://doi.org/10.1101/2025.02.17.638454; this version posted February 22, 2025. The copyright holder for this preprint (which was not certified by peer review) is the author/funder, who has granted bioRxiv a license to display the preprint in perpetuity. It is made available under a CC-BY 4.0 International license .
Supplementary Figure 22: HNB regulates KRAS dimerization (A) Schematic representation of KRAS dimerization using acceptor photobleaching FRET assay. (B) Schematic representation of KRAS dimerization on knocking down HNB using shRNA1-PVT1ts. (C) Representative images showing signals for CFP-KRAS and YFP-KRAS. […]
Images were taken at 60X oil; the scale bar is 10µm. […] (p-value calculated by one-way ANOVA, n=10). […] (p-value calculated by one-way ANOVA, n=10). […]

FFX = test: Western blot of FFX in D458; type: cell-based, human; conditions: D458, siRNA vs si.Ctrl, anti-FFX antibody
Method: For whole-cell lysate, the cell pellet was resuspended in RIPA buffer (Cell Signaling Technologies, Danvers, MA) supplemented with a protease inhibitor cocktail (Cell Signaling Technologies) and incubated on ice for 20 minutes. The lysate was then centrifuged at 14,000 revolutions/minute for 10 minutes at 4°C, and the supernatant was harvested. Protein concentration was quantified by BCA Protein Assay Kit (Thermo Fisher Scientific) as per kit protocol. Next, 20 μg of whole-cell lysate was electrophoresed on a 4%–20% gradient polyacrylamide gel with SDS (Bio-Rad, Hercules, CA) and electroblotted onto polyvinylidene difluoride membranes (Bio-Rad). Membranes were blocked in Tris-buffered saline with 5% nonfat milk and 0.1% Tween and probed with antibodies. Bound proteins were detected with horseradish-peroxidase–conjugated secondary antibodies (Cell Signaling Technologies) and SuperSignal West Femto (Thermo Fisher Scientific). […]

HALLMARK_MYC_TARGETS = test: GSEA MYC targets, COLO320DM; type: cell-based, human; conditions: si.CircPVT1 vs si.Ctrl
Source text: RNAseq processing: Raw reads were mapped to the hg19 human reference genome using the STAR aligner (v.2.5.0a) 66. PCR-duplicated reads and low mapping quality reads (MQ score below 20) were removed using Picard tools and SAMtools, respectively. Aligned reads were counted using htseq-count (v.0.6.1p1) 69 and normalized according to size factors method from DESeq2 70. We used fold change ≥2 and FDR <0.05 as the determination of differentially expressed genes (DEG). […]
Supplementary Figure 9: Gene set enrichment analysis scores (GSEA) analysis for MYC targets genes in COLODM320 (A,B) and SK-PN-DW (C,D) treated with si.CircPVT 1. si.Ctrl was used as control . n=3, for each treatment condition .
(also on this page, place not known: Enrichment Score Enrichment Score si.CircPVT1. control. condition. Enrichment Score Enrichment Score .CC-BY licenseavailable preprintthis https://doi.org/10.1101/2025.02.17.638454doi:) […]

Substance	CFP (donor) fluorescence after photobleaching of YFP (KRAS dimerization)	FFX protein expression (FFX)	NES, HALLMARK_MYC_TARGETS_V1 (HALLMARK_MYC_TARGETS; n=3, Padj = 0.009)	NES, HALLMARK_MYC_TARGETS_V2 (HALLMARK_MYC_TARGETS; n=3, Padj = 0.017)
MKTQLGAVKGFLHV [HNB]	mitigated the augmented CFP fluorescence	–	–	–
si.CircPVT1: siRNA targeting the junction sequence of CircPVT1, 5’-UGGGCUUGAGGCCUGAUCUUU-3’ (other strand not given here)	–	significantly reduced the protein	-1.990	-1.733
